The assay in a line: Inhibition of Trypanosoma cruzi trans-sialidase after 15 mins.

With `O=C(CO)N[C@H]1[C@H](OCc2ccccc2)O[C@@H](CO[C@@H]2O[C@H](CO)[C@H](O)[C@H](O[C@H]3O[C@@H](CO)[C@@H](O)[C@@H](O)[C@@H]3O)[C@H]2O[C@@H]2O[C@H](CO)[C@H](O)[C@H](O)[C@H]2O)[C@H](O[C@@H]2O[C@@H]([C@H](O)CO)[C@H](O)[C@H]2O)[C@H]1O`, the IC50 worked out at 610 µM.

In turn, `O=C(COCc1ccccc1)N[C@H]1[C@H](OCc2ccccc2)O[C@@H](CO[C@H]2O[C@@H](CO)[C@@H](O)[C@@H](O[C@H]3O[C@@H](CO)[C@@H](O)[C@H](O)[C@@H]3O)[C@@H]2O)[C@H](O[C@@H]2O[C@@H]([C@H](O)CO)[C@H](O)[C@H]2O)[C@H]1O` had a 50% inhibitory concentration (IC50) of 1140 µM.

Turning to `O=C(COCc1ccccc1)N[C@H]1[C@@H](OCc2ccccc2)O[C@H](CO[C@@H]2O[C@H](CO)[C@H](O)[C@H](O)[C@H]2O)[C@@H](O)[C@@H]1O`, the IC50 came out at 1110 µM.

`O=C(COCc1ccccc1)N[C@H]1[C@@H](OCc2ccccc2)O[C@H](CO)[C@@H](O[C@@H]2O[C@@H]([C@H](O)CO)[C@H](O)[C@H]2O[C@@H]2O[C@H](CO)[C@H](O)[C@H](O)[C@H]2O)[C@@H]1O` yielded an IC50 of 850 µM.

For `O=C(CO)N[C@H]1[C@H](OCc2ccccc2)O[C@@H](CO[C@H]2O[C@@H](CO)[C@@H](O)[C@@H](O[C@H]3O[C@@H](CO)[C@@H](O)[C@H](O)[C@@H]3O)[C@@H]2O)[C@H](O[C@@H]2O[C@@H]([C@H](O)CO)[C@H](O)[C@H]2O)[C@H]1O`, half-maximal inhibition (IC50) required 1260 µM.

`CC(=O)N[C@H]1[C@H](OCc2ccccc2)O[C@@H](CO[C@@H]2O[C@H](CO)[C@H](O)[C@H](O[C@H]3O[C@@H](CO)[C@@H](O)[C@@H](O)[C@@H]3O)[C@H]2O[C@@H]2O[C@H](CO)[C@H](O)[C@H](O)[C@H]2O)[C@H](O[C@@H]2O[C@@H]([C@H](O)CO)[C@H](O)[C@H]2O)[C@H]1O` displayed an IC50 of 850 µM.

`CC(=O)N[C@H]1[C@@H](OCc2ccccc2)O[C@H](CO)[C@@H](O[C@@H]2O[C@@H]([C@H](O)CO)[C@H](O)[C@H]2O[C@@H]2O[C@H](CO)[C@H](O)[C@H](O)[C@H]2O)[C@@H]1O` came in with an IC50 of 4430 µM.

`O=C(COCc1ccccc1)N[C@H]1[C@@H](OCc2ccccc2)O[C@H](CO[C@@H]2O[C@H](CO)[C@H](O)[C@H](O)[C@H]2O)[C@@H](O[C@H]2O[C@H]([C@@H](O)CO)[C@@H](O)[C@@H]2O)[C@@H]1O` had an IC50 of 860 µM.

As to `OC[C@@H]1O[C@H](O[C@@H]2[C@H](O)[C@H](CO)O[C@H](OCc3ccccc3)[C@H]2O[C@@H]2O[C@H](CO)[C@H](O)[C@H](O)[C@H]2O)[C@@H](O)[C@H](O)[C@@H]1O`, the half-maximal inhibitory concentration (IC50) was 1130 µM.

The molecule `CC(=O)N[C@H]1[C@@H](OCc2ccccc2)O[C@H](CO[C@@H]2O[C@H](CO)[C@H](O)[C@H](O)[C@H]2O)[C@@H](O)[C@@H]1O` showed an IC50 of 2220 µM.

`O=C(CO)N[C@H]1[C@@H](OCc2ccccc2)O[C@H](CO[C@@H]2O[C@H](CO)[C@H](O)[C@H](O)[C@H]2O)[C@@H](O)[C@@H]1O`: it took 980 µM to reach half-maximal inhibition (IC50).

Turning to `O=C(COCc1ccccc1)N[C@H]1[C@H](OCc2ccccc2)O[C@@H](CO[C@@H]2O[C@H](CO)[C@H](O)[C@H](O[C@H]3O[C@@H](CO)[C@@H](O)[C@@H](O)[C@@H]3O)[C@H]2O[C@@H]2O[C@H](CO)[C@H](O)[C@H](O)[C@H]2O)[C@H](O[C@@H]2O[C@@H]([C@H](O)CO)[C@H](O)[C@H]2O)[C@H]1O`, the IC50 is 700 µM.

As to `CC(=O)N[C@H]1[C@@H](OCc2ccccc2)O[C@H](CO[C@@H]2O[C@H](CO)[C@H](O)[C@H](O)[C@H]2O)[C@@H](O[C@H]2O[C@H]([C@@H](O)CO)[C@@H](O)[C@@H]2O)[C@@H]1O`, the IC50 worked out at 1330 µM.

The molecule `O=C(CO)N[C@H]1[C@@H](OCc2ccccc2)O[C@H](CO)[C@@H](O[C@@H]2O[C@@H]([C@H](O)CO)[C@H](O)[C@H]2O[C@@H]2O[C@H](CO)[C@H](O)[C@H](O)[C@H]2O)[C@@H]1O` had an IC50 of 1670 µM.

In the case of `O=C(CO)N[C@H]1[C@@H](OCc2ccccc2)O[C@H](CO[C@@H]2O[C@H](CO)[C@H](O)[C@H](O)[C@H]2O)[C@@H](O[C@H]2O[C@H]([C@@H](O)CO)[C@@H](O)[C@@H]2O)[C@@H]1O`, the IC50 was 940 µM.

In turn, `CC(=O)N[C@H]1[C@H](OCc2ccccc2)O[C@@H](CO[C@H]2O[C@@H](CO)[C@@H](O)[C@@H](O[C@H]3O[C@@H](CO)[C@@H](O)[C@H](O)[C@@H]3O)[C@@H]2O)[C@H](O[C@@H]2O[C@@H]([C@H](O)CO)[C@H](O)[C@H]2O)[C@H]1O` yielded an IC50 of 760 µM.

As a reminder, the IC50 is the concentration needed to halve the response being measured. A higher IC50 goes with weaker potency.

Values taken from ChEMBL document CHEMBL1147185, “Comparative rates of sialylation by recombinant trans-sialidase and inhibitor properties of synthetic oligosaccharides from Trypanosoma cruzi mucins-containing galactofuranose and galactopyranose” (Bioorg Med Chem, 2007).
